Earlier results on one molecule are cited in patent US20220184095A1 (Mylan Specialty L.P., priority 2019, published 2022).

Structures are written as SMILES.

For the data set the following is noted: orally delivered, humans.

As for `Cc1cnc(NC(=O)C2=C(O)c3ccccc3S(=O)(=O)N2C)s1` [meloxicam, 4-hydroxy-2-methyl-N-(5-methyl-2-thiazolyl)-2H-1,2-benzothiazine-3-carboxamide-1,1-dioxide], the “Tmax (time to reach maximum concentration)” value is 4 to 6 h and the “time to reach the therapeutic concentration that enables the onset of action” value is 2 to 3 h.
